US7709507B2 (Allergan, Inc., priority 2006, dated 2010)

Experiments:
Type in all cases: cell-based
alpha2C receptor = molecular target: T1, alpha2C receptor (Homo sapiens, UniProt P18825); experiment: Receptor Selection and Amplification Technology (RSAT) assay, Alpha 2C; conditions: RSAT, transfected NIH-3T3 cells with Gq/i5; not active = at concentrations less than 10 micromolar
T1 construct: expressed in transfected cells; host or cells: NIH-3T3 cells
T1 sequence (P18825 1-462): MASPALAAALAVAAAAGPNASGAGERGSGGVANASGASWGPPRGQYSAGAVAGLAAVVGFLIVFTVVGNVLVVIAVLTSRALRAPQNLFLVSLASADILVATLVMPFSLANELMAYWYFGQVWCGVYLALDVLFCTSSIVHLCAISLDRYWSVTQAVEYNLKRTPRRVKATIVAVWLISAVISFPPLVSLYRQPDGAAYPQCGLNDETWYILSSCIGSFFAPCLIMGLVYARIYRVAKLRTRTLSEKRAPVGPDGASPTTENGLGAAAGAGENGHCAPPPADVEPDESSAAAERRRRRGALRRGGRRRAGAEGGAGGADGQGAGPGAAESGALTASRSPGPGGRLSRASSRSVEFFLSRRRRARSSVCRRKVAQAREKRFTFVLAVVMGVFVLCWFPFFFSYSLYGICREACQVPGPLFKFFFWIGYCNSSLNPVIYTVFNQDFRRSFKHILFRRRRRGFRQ
Procedure: (§1) Receptor Selection and Amplification Technology (RSAT) Assay
(§2) The RSAT assay measures a receptor-mediated loss of contact inhibition that results in selective proliferation of receptor-containing cells in a mixed population of confluent cells. The increase in cell number is assessed with an appropriate transfected marker gene such as β-galactosidase, the activity of which can be easily measured in a 96-well format. Receptors that activate the G protein, Gq, elicit this response. Alpha2 receptors, which normally couple to Gi, activate the RSAT response when coexpressed with a hybrid Gq protein that has a Gi receptor recognition domain, called Gq/i5.
(§3) NIH-3T3 cells are plated at a density of 2×10^6 cells in 15 cm dishes and maintained in Dulbecco's modified Eagle's medium supplemented with 10% calf serum. One day later, cells are cotransfected by calcium phosphate precipitation with mammalian expression plasmids encoding p-SV-β-galactosidase (5-10 μg), receptor (1-2 μg) and G protein (1-2 μg). 40 μg salmon sperm DNA may also be included in the transfection mixture. […] Cells are thawed and 100 μl added to 100 μl aliquots of various concentrations of drugs in triplicate in 96-well dishes. Incubations continue 72-96 hr at 37° C. After washing with phosphate-buffered saline, β-galactosidase enzyme activity is determined by adding 200 μl of the chromogenic substrate (consisting of 3.5 mM o-nitrophenyl-β-D-galactopyranoside and 0.5% nonidet P-40 in phosphate buffered saline), incubating overnight at 30° C. and measuring optical density at 420 nm. The absorbance is a measure of enzyme activity, which depends on cell number and reflects a receptor-mediated cell proliferation. The efficacy or intrinsic activity is calculated as a ratio of the maximal effect of the drug to the maximal effect of a standard full agonist for each receptor subtype. Brimonidine, also called UK14304, the chemical structure of which is shown below, is used as the standard agonist for the alpha2A, alpha2B and alpha2C receptors. The EC50 is the concentration at which the drug effect is half of its maximal effect.
(§4) EC50 values are nanomolar. NA stands for “not active” at concentrations less than 10 micromolar. IA stands for “intrinsic activity.”

alpha2B receptor = molecular target: T2, alpha2B receptor (Homo sapiens, UniProt P18089); experiment: Receptor Selection and Amplification Technology (RSAT) assay, Alpha 2B; conditions: for EC50: RSAT, transfected NIH-3T3 cells with Gq/i5, not active = at concentrations less than 10 micromolar, read-out: Alpha 2B EC50; for Alpha 2B IA (intrinsic activity): ratio of maximal effect to that of standard full agonist brimonidine (UK14304)
T2 construct: expressed in transfected cells; host or cells: NIH-3T3 cells
T2 sequence (P18089 1-450): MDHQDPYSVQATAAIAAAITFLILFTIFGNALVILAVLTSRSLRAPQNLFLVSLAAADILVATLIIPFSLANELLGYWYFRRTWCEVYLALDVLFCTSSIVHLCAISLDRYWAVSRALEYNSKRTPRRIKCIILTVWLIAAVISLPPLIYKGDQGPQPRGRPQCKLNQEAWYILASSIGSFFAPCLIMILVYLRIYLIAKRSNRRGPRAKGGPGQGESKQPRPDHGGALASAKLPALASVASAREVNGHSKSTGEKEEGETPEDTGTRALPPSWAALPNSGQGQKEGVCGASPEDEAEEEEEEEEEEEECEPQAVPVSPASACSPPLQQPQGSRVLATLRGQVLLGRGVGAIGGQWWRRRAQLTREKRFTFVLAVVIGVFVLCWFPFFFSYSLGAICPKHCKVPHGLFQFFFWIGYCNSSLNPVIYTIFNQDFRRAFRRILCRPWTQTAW
Procedure: as §1, §2
NIH-3T3 cells are plated at a density of 2×10^6 cells in 15 cm dishes and maintained in Dulbecco's modified Eagle's medium supplemented with 10% calf serum. One day later, cells are cotransfected by calcium phosphate precipitation with mammalian expression plasmids encoding p-SV-β-galactosidase (5-10 μg), receptor (1-2 μg) and G protein (1-2 μg). 40 μg salmon sperm DNA may also be included in the transfection mixture. Fresh media is added on the following day and 1-2 days later, cells are harvested and frozen in 50 assay aliquots. Cells are thawed and 100 μl added to 100 μl aliquots of various concentrations of drugs in triplicate in 96-well dishes. Incubations continue 72-96 hr at 37° C. After washing with phosphate-buffered saline, β-galactosidase enzyme activity is determined by adding 200 μl of the chromogenic substrate (consisting of 3.5 mM o-nitrophenyl-β-D-galactopyranoside and 0.5% nonidet P-40 in phosphate buffered saline), incubating overnight at 30° C. and measuring optical density at 420 nm. The absorbance is a measure of enzyme activity, which depends on cell number and reflects a receptor-mediated cell proliferation. The efficacy or intrinsic activity is calculated as a ratio of the maximal effect of the drug to the maximal effect of a standard full agonist for each receptor subtype. Brimonidine, also called UK14304, the chemical structure of which is shown below, is used as the standard agonist for the alpha2A, alpha2B and alpha2C receptors. The EC50 is the concentration at which the drug effect is half of its maximal effect.
The results of the RSAT assay with several exemplary compounds of the invention are disclosed in Table 1 above together with the chemical formulas of these exemplary compounds. EC50 values are nanomolar. NA stands for “not active” at concentrations less than 10 micromolar. IA stands for “intrinsic activity.”

alpha2A receptor = molecular target: T3, alpha2A receptor (Homo sapiens, UniProt P08913); experiment: Receptor Selection and Amplification Technology (RSAT) assay, Alpha 2A; conditions: for Alpha 2A EC50 / EC50: RSAT, transfected NIH-3T3 cells with Gq/i5, not active = at concentrations less than 10 micromolar; for EC50: read-out: Alpha 2A EC50; for Alpha 2A IA (intrinsic activity): ratio of maximal effect to that of standard full agonist brimonidine (UK14304)
T3 construct: expressed in transfected cells; host or cells: NIH-3T3 cells
T3 sequence (P08913 1-465): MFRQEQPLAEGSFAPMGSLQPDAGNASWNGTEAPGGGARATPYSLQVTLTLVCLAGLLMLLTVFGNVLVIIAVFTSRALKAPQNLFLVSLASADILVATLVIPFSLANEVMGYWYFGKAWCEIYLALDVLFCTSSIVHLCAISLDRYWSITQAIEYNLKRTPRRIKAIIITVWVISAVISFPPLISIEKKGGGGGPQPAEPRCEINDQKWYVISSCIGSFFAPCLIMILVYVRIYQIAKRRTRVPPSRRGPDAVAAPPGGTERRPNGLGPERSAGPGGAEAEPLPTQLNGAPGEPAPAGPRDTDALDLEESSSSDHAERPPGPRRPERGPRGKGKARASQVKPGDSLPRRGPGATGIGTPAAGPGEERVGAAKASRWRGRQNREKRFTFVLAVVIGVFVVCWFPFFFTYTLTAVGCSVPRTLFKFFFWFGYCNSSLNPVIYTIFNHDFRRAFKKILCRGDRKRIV
Procedure: as §1, §2, §3, §4

O=C(NCCF)NC(Cc1ccccc1)c1ccc(Cl)c(Cl)c1 (stereo not shown) [1-[1-(3,4-dichlorophenyl)-2-phenylethyl]-3-(2-fluoroethyl)urea]
Alpha 2C EC50 (alpha2C receptor): not active
EC50 (alpha2B receptor): 488 nM
Alpha 2B IA (intrinsic activity) (alpha2B receptor): 0.69
Alpha 2A EC50 (alpha2A receptor): not active

O=C(NCCF)NC(Cc1ccccc1)c1cccc(Br)c1 (stereo not shown) [1-[1-(3-Bromophenyl)-2-phenylethyl]-3-(2-fluoroethyl)urea]
Alpha 2C EC50 (alpha2C receptor): not active
EC50 (alpha2B receptor): 173 nM
Alpha 2B IA (intrinsic activity) (alpha2B receptor): 0.86
Alpha 2A EC50 (alpha2A receptor): not active

O=C(NCCF)NC(Cc1ccccc1)c1cccc(Cl)c1F (stereo not shown) [1-[1-(3-chloro-2-fluorophenyl)-2-phenylethyl]-3-(2-fluoroethyl)urea]
Alpha 2C EC50 (alpha2C receptor): not active
EC50 (alpha2B receptor): 138 nM
Alpha 2B IA (intrinsic activity) (alpha2B receptor): 1.0
Alpha 2A EC50 (alpha2A receptor): not active

Cc1cccc(CC(NC(=O)NCCF)c2cccc(Cl)c2)c1 (stereo not shown) [1-[1-(3-chloro-phenyl)-2-m-tolyl-ethyl]-3-(2-fluoro-ethyl)-urea]
Alpha 2C EC50 (alpha2C receptor): not active
EC50 (alpha2B receptor): 5.99 nM
Alpha 2B IA (intrinsic activity) (alpha2B receptor): 0.9
EC50 (alpha2A receptor): 70.4 nM
Alpha 2A IA (intrinsic activity) (alpha2A receptor): 0.35

O=C(NCCF)NC(Cc1ccncc1)c1cccc(Cl)c1 (stereo not shown) [1-[1-(3-chloro-phenyl)-2-pyridin-4-yl-ethyl]-3-(2-fluoro-ethyl)-urea]
Alpha 2C EC50 (alpha2C receptor): not active
EC50 (alpha2B receptor): 30.7 nM
Alpha 2B IA (intrinsic activity) (alpha2B receptor): 1.32
EC50 (alpha2A receptor): 368 nM
Alpha 2A IA (intrinsic activity) (alpha2A receptor): 0.57

Cc1cccc(C(Cc2cccc(F)c2F)NC(=O)NCCF)c1 (stereo not shown) [1-[2-(2,3-difluoro-phenyl)-1-m-tolyl-ethyl]-3-(2-fluoro-ethyl)-urea]
Alpha 2C EC50 (alpha2C receptor): not active
EC50 (alpha2B receptor): 20.5 nM
Alpha 2B IA (intrinsic activity) (alpha2B receptor): 1.02
Alpha 2A EC50 (alpha2A receptor): not active

Cc1cccc(C(Cc2cc(F)ccc2F)NC(=O)NCCF)c1 (stereo not shown) [1-[2-(2,5-difluoro-phenyl)-1-m-tolyl-ethyl]-3-(2-fluoro-ethyl)-urea]
Alpha 2C EC50 (alpha2C receptor): not active
EC50 (alpha2B receptor): 21.3 nM
Alpha 2B IA (intrinsic activity) (alpha2B receptor): 1.02
Alpha 2A EC50 (alpha2A receptor): not active

O=C(NCCF)NC(Cc1cc(F)ccc1F)c1cccnc1 (stereo not shown) [1-[2-(2,5-difluoro-phenyl)-1-pyridin-3-yl-ethyl]-3-(2-fluoro-ethyl)-urea]
Alpha 2C EC50 (alpha2C receptor): not active
EC50 (alpha2B receptor): 611 nM
Alpha 2B IA (intrinsic activity) (alpha2B receptor): 1.02
Alpha 2A EC50 (alpha2A receptor): not active

O=C(NCCF)NC(Cc1ccc(F)c(F)c1)c1ccncc1 (stereo not shown) [1-[2-(3,4-difluoro-phenyl)-1-pyridin-4-yl-ethyl]-3-(2-fluoro-ethyl)-urea]
Alpha 2C EC50 (alpha2C receptor): not active
EC50 (alpha2B receptor): 3620 nM
Alpha 2B IA (intrinsic activity) (alpha2B receptor): 0.44
Alpha 2A EC50 (alpha2A receptor): not active

O=C(NCCF)NC(Cc1cccc(F)c1)c1ccccc1 (stereo not shown) [N-(2-fluoroethyl)-N′-[2-(3-fluorophenyl)-1-phenylethyl]urea]
Alpha 2C EC50 (alpha2C receptor): not active
EC50 (alpha2B receptor): 26 nM
Alpha 2B IA (intrinsic activity) (alpha2B receptor): 0.95
Alpha 2A EC50 (alpha2A receptor): not active

Cc1cccc(C(Cc2ccccc2)NC(=O)NCCF)c1 (stereo not shown) [drawing 72, 1-(2-fluoroethyl)-3-[1-(3-methylphenyl)-2-phenylethyl]urea]
Alpha 2C EC50 (alpha2C receptor): not active
EC50 (alpha2B receptor): 29.8 nM
Alpha 2B IA (intrinsic activity) (alpha2B receptor): 0.91
Alpha 2A EC50 (alpha2A receptor): not active
